Each block holds one compound with its values, some of them ahead of it.
Tests used:
[1] = tested on: human vascular ATP-dependent K+ channels; conditions: cited from earlier work
[2] = allows once daily treatment; cited from earlier work
[3] = cited from earlier work
[4] = tested on: type 2 diabetes patients; conditions: overweight type 2 diabetes patients assigned metformin; microvascular and macrovascular; cited from earlier work
[5] = oral, conventional metformin; cited from earlier work
[6] = In-house study: metformin co-administered with propantheline; assay type: in vivo; conditions: compared with metformin alone
[7] = tested on: people with diabetes; conditions: versus placebo, cited from earlier work

Structure (SMILES): CCC1=C(C)CN(C(=O)NCCc2ccc(S(=O)(=O)NC(=O)N[C@H]3CC[C@H](C)CC3)cc2)C1=O [glimepiride]
effect on human vascular ATP-dependent K+ channels [1]: no effect | long life [2]: 9 h

AUC [6]: increased | Tmax [6]: delayed | time period over which therapeutically beneficial plasma levels were maintained [6]: extended
Structure (SMILES): CN(C)C(=N)N=C(N)N [metformin]
drug in plasma ([3]; drug perfused into the colon): not detectable | area under the plasma concentration-time profile, jejunum versus ileum perfusion ([3]; perfusion into jejunum compared with ileum): 2.5 fold | relative risk reduction of developing any diabetes related end points [4]: 32% | gastrointestinal absorption apparently complete (time after ingestion) [5]: ≤ 6 h

Structure (SMILES): CCOC(=O)[C@H](CCc1ccccc1)N[C@@H](C)C(=O)N1[C@H](C(=O)O)C[C@@H]2CCC[C@@H]21 [ramipril]
lowering of relative risk of a major cardiovascular event (myocardial infarction, stroke or cardiovascular death) ([7]; 3,577 people with diabetes, 4.5 years): 25% | lowering of absolute risk of a major cardiovascular event ([7]; 3,577 people with diabetes): 4.5% | absolute risk reduction of overt nephropathy ([7]; people with diabetes): 2.0% | reduction of relative risk of overt nephropathy ([7]; people with diabetes): 24%
